Assay results reported in ChEMBL document CHEMBL5576087 (Bioorg Med Chem Lett, 2024).
Activity calls are given as the source filed them. No cut-off for these calls is given here.

What was measured:
HUVEC [1] = assay: Antiproliferative activity against human HUVEC cells at 10 uM measured after 48 hrs by CCK-8 method; format: toxicity, cell-based
HuH-6 = assay: Effect on SALL4 protein level in human HuH-6 cells at 0.1 uM measured after 16 hrs by Western blot analysis; format: functional, cell-based
MM1.S [2] = assay: Effect on IKZF3 protein level in human MM1.S cells at 0.1 uM measured after 16 hrs by Western blot analysis; format: functional, cell-based
MM1.S [3] = assay: Effect on CK1a protein level in human MM1.S cells at 0.1 uM measured after 16 hrs by Western blot analysis; format: functional, cell-based
HUVEC [4] = assay: Antiangiogenesis activity in HUVEC cells assessed as inhibition of tube formation at 10 to 100 uM measured after 18 hrs; format: functional, cell-based; conditions: Homo sapiens, dose 10-100 µM
MM1.S [5] = assay: Antiproliferative activity against human MM1.S cells at 10 uM measured after 72 hrs by CCK-8 method; format: functional, cell-based
MM1.S [6] = assay: Effect on GSPT1 protein level in human MM1.S cells at 0.1 uM measured after 16 hrs by Western blot analysis; format: functional, cell-based
[7] = Metabolic stability in human liver microsomes assessed as half life measured upto 60 mins in presence of NADPH by LC/MS analysis; format: ADME, Microsome
Protein cereblon = Protein cereblon (Homo sapiens, UniProt Q96SW2); assay: Binding affinity to human CRBN TBD (319 to 425 residues) assessed as inhibition constant by MST assay
HUVEC [8] = assay: Inhibition of tube formation in HUVEC cells at 100 uM measured after 18 hrs relative to control; format: functional; conditions: Homo sapiens
HUVEC [9] = assay: Antiproliferative activity against human HUVEC cells at 100 uM measured after 48 hrs by CCK-8 method; format: toxicity, cell-based
MM1.S [10] = assay: Antiproliferative activity against human MM1.S cells at 100 uM measured after 72 hrs by CCK-8 method; format: functional, cell-based
HUVEC [11] = assay: Antiproliferative activity against human HUVEC cells at 10 uM measured after 48 hrs by CCK-8 method relative to control; format: toxicity, cell-based
HUVEC [12] = assay: Antiangiogenesis activity in HUVEC cells assessed as inhibition of tube formation measured after 18 hrs; format: functional, cell-based; conditions: Homo sapiens

Row | SMILES | Activity (HUVEC [1]) | Activity (HuH-6) | Activity (MM1.S [2]) | Activity (MM1.S [3]) | Activity (HUVEC [4]) | Activity (MM1.S [5]) | Activity (MM1.S [6]) | half-life [7] [min] | Ki (Protein cereblon) | inhibition at 100 µM (HUVEC [8]) [%] | Activity (HUVEC [9]) | Activity (MM1.S [10]) | Activity (HUVEC [11]) [%] | IC50 (HUVEC [12]) [nM] | inhibition (HUVEC [8])
1 | O=C1CCC(NC(=O)c2cc(F)c(F)c(F)c2F)C(=O)N1 (centres undefined) | Non-Toxic | inactive | inactive | inactive | inactive | inactive | inactive |  |  |  |  |  |  |  | 
2 | CC(C)N1C(=O)NC(=O)C(C)(N2C(=O)c3ccccc3C2=O)C1=O (centres undefined) | Non-Toxic | inactive | inactive | inactive | inactive | inactive | inactive | 19.3 | Not Active |  |  |  |  |  | 
3 | CCOCCNc1cccc2c1C(=O)N(C1CCC(=O)NC1=O)C2=O (centres undefined) |  |  |  |  |  |  |  |  |  | 50 |  |  |  |  | 
4 | O=C1CCC(N2C(=O)c3ccccc3C2=O)C(=O)N1 (centres undefined) [THALIDOMIDE] |  | inactive | inactive | inactive | inactive |  | inactive |  |  |  | Non-Toxic | inactive |  |  | 
5 | CC(C)N1C(=O)NC(=O)C(C)(N2C(=O)c3c(F)c(F)c(F)c(F)c3C2=O)C1=O (centres undefined) |  | inactive | inactive | inactive |  |  | inactive |  | Not Active |  |  |  | > 95 | 2800 | 
6 | CC(C)N1C(=O)NC(=O)C(C)(NC(=O)c2ccccc2)C1=O (centres undefined) | Non-Toxic | inactive | inactive | inactive | inactive | inactive | inactive |  | Not Active |  |  |  |  |  | 
7 | O=C1CCC(N2C(=O)c3c(F)c(F)c(F)c(F)c3C2=O)C(=O)N1 (centres undefined) |  | inactive | inactive | inactive |  |  | inactive |  |  |  |  |  |  |  | 
8 | O=C1CCC(NC(=O)c2cc(F)c(F)cc2F)C(=O)N1 (centres undefined) |  |  |  |  |  |  |  |  |  |  |  |  |  |  | inactive
9 | CC(C)N1C(=O)NC(=O)C(C)(NC(=O)c2cc(F)c(F)c(F)c2F)C1=O (centres undefined) | Non-Toxic | inactive | inactive | inactive | inactive | inactive | inactive |  | Not Active |  |  |  |  |  | 
10 | O=C1CCC(NC(=O)c2ccccc2)C(=O)N1 (centres undefined) | Non-Toxic | inactive | inactive | inactive | inactive | inactive | inactive |  |  |  |  |  |  |  | 
